Measured values published in patent publication US10676438B2, “KCNQ2-5 channel activator” (Ono Pharmaceutical Co., Ltd., priority 2014, dated 2020).
In brackets after ≈: the same amount, converted by molar mass.

Assays:
Human KCNQ2/3 channel = Human KCNQ2/3 channel (Homo sapiens (Human), UniProt O43525+O43526); experiment: Opening action with respect to KCNQ2/3 channel by depolarization stimulation (thallium influx, FLIPR); format: cell-based; conditions: concentration giving 50% of maximum reaction of retigabine (10 μM); human KCNQ2/3 expression CHO-DHFR- cells; 5 mM potassium and 0.5 mM thallium; read-out: KCNQ2/3 ECrtg50
Description: Human KCNQ2/3 expression cells (CHO-DHFR-cells) were seeded in each well of 384 well plate (collagen-coated, black, clear bottom) at 0.5×10^4 cells/50 μL per well, and cultured in a MEM ALPHA medium (containing 10 vol % inactivated (56° C., 30 min) Fetal Bovine Serum and 100 IU/mL Penicillin—100 μg/mL Streptomycin—2 mM L-Glutamine) at 37° C. in 5% CO2 for 18 to 24 hours. The medium in the plate was removed. Then, incubation (room temperature, 60 minutes, light-shielded) was carried out in a loading buffer (prepared by the method described in the manual of FluxOR Thallium Detection Kit (Invitrogen, F10016, F10017)). KCNQ2/3 channel opening action (thallium influx into cells) by the depolarization stimulation (5 mM potassium and 0.5 mM thallium) was measured by FLIPR TETRA (Molecular Devices). The compound of the present invention had been treated five minutes before the depolarization stimulation, and the reaction induced by the depolarization stimulation was measured over time for 180 seconds. The channel opening action of the compound of the present invention was evaluated based on the change amount of the fluorescence intensity from the time before the depolarization stimulation to the time after the passage of 180 seconds. Thus, the concentration (ECrtg50) satisfying 50% of the fluorescence intensity change of maximum reaction (at the time of 10 μM-treatment) of retigabine under this experiment condition was calculated.

[1] = system: urinary bladder extracted from rat; experiment: Relaxing action on urinary bladder extracted from rat (rat Magnus test); conditions: concentration at which tension change rate is -20%; carbachol 1 μM-induced contraction of rat urinary bladder strips
Description: Female Jcl Wistar rats (CLEA Japan, Inc., body weight in use: 170 to 200 g) were anesthetized by intraperitoneal administration of about 40 mg/kg of pentobarbital (Somnopentyl, Schering Plough Animal Health Corporation), and killed by bloodletting, followed by abdominal incision to extract the urinary bladder. Immediately, the extracted urinary bladder was immersed in ice-cooled Krebs buffer (Krebs Ringer bicarbonate buffer (Sigma-Aldlich Co.) containing sodium hydrogencarbonate (final concentration: 15 mM) and calcium chloride (final concentration: 2.5 mM)) which had been saturated with a mixed gas (95% O2, 5% CO2).
The urinary bladder bodies were cut in the longitudinal direction to prepare strip specimens (about 10×3 mm) on ice. Immediately, the prepared specimens were suspended in a Magnus tube with 500 mg of tension loaded. The tube was filled with Krebs buffer (37° C.) aerated with a mixed gas. Note here that specimens were prepared within 24 hours after extraction of the tissue.
When one hour or more had passed after the specimen was suspended, 2.5M KCl was added so that the final concentration became 100 mM, specimens showing contraction reaction were used.
Carbachol (a contraction-inducing substance) at the concentration of contraction of 1 μM was used to induce contraction. […] After the contraction reaction was stabilized, a physiological salt solution or the compound of the present invention was added in a cumulative manner from low concentration such that the final concentration became 1, 10, 100 nM, 1 and 10 μM.
The tension (mg) of the extracted urinary bladder was employed as an evaluation parameter. The tension was read by using analysis software WAVE THERMO 1000. Tension after addition of the contraction-inducing substance was set to 0%. The change rate of the tension after addition of the compound of the present invention relative to the tension after addition of the contraction-inducing substance was defined as tension change rate (%). The tension change rate (%) was adopted as an evaluation indicator. The tension change rate (%) is calculated from the following formula. Tension change rate (%)={Tension after addition of compound of the present invention and the like (mg)−Tension before addition of contraction-inducing substance (mg)}/{Tension after addition of contraction-inducing substance (mg)−Tension before addition of contraction-inducing substance (mg)}×100−100
The value at which the tension change rate (%) was −20% was calculated as IC20, and the value was adopted as an indicator of the relaxing action of the extracted urinary bladder.

[2] = Evaluation of stability in human liver microsome; format: in vitro ADME; conditions: human, 15 min, 5 μmol/L, pH 7.4
Description: A test compound (10 mmol/L DMSO solution, 5 μL) was diluted with 50% acetonitrile aqueous solution (195 μL) to prepare 0.25 mmol/L solution.
To a reactor vessel which had been warmed to 37° C. in advance, 0.5 mg/mL of human liver microsome (Xenotech) and 245 μL of 0.1 M phosphate buffer solution (pH 7.4) including NADPH-Co-factor (BD Biosciences) were added, followed by preincubation for five minutes. Then, the above-mentioned test compound solution (5 μL) was added so as to start reaction (final concentration: 5 μmol/L). Immediately after the start, 20 μL was harvested and added to 180 μL of acetonitrile including an internal standard substance (warfarin) to stop the reaction. This solution (20 μL) was stirred with 180 μL of 50% acetonitrile aqueous solution on a plate equipped with a deproteinization filter. Then, the resulting mixture solution was subjected to suction filtration. The filtrate was adopted as a standard sample.
The above-mentioned reaction solution was incubated at 37° C. for 15 minutes, and 20 μL of the solution was added to 180 μL of cooled acetonitrile (including warfarin that is an internal standard substance) to stop the reaction. This solution (20 μL) was stirred with 180 μL of 50% acetonitrile aqueous solution on a plate equipped with a deproteinization filter, and then the resulting mixture solution was subjected to suction filtration. The filtrate was adopted as a reaction sample.
Residual rate (%) was obtained as follows: 1 μL of the sample solution was infused into LC-MS/MS (Discovery Max manufactured by Thermo Scientific), and a quotient obtained by dividing a peak area ratio of the reaction sample (peak area of test compound/peak area of internal standard substance) was divided by the peak area ratio of the standard sample was multiplied by 100.

hERG channel = hERG channel (Homo sapiens (Human), UniProt Q12809); experiment: Evaluation of action on hERG IKr current (patch-clamp); format: cell-based; conditions: HEK293 cell overexpressing hERG, maximum tail current, 10 minutes after application; read-out: IC50 (50% inhibitory activity of hERG channel)
Chain of hERG channel (Q12809 whole entry): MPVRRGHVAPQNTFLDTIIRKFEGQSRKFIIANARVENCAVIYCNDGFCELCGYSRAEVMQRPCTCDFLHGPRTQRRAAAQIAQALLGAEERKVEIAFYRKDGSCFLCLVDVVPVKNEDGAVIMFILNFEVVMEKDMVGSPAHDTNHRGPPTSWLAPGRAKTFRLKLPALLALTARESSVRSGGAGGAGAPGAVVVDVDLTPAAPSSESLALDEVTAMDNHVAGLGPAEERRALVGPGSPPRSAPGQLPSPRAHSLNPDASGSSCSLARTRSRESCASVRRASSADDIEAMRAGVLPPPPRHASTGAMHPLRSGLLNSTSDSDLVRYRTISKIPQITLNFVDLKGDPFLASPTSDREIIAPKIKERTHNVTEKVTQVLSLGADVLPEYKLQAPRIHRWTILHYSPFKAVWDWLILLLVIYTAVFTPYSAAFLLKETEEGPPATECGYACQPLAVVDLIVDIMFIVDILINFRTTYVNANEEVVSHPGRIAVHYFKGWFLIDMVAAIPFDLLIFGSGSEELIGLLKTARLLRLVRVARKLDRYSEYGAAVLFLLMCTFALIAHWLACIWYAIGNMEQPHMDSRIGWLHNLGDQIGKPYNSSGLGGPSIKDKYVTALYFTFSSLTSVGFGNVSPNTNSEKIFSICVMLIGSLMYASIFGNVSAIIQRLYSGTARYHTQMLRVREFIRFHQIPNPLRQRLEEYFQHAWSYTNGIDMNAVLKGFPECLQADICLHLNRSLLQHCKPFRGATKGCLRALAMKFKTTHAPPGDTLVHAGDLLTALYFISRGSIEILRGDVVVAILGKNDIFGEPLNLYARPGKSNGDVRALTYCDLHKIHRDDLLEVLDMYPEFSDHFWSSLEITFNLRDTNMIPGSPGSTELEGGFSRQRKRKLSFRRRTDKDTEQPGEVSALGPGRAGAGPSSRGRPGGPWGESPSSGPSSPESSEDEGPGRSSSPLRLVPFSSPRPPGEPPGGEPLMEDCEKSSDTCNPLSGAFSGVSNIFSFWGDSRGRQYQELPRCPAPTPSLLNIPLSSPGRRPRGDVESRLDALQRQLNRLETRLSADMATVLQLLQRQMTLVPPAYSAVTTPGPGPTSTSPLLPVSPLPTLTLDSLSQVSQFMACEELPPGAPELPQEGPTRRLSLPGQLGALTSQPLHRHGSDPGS
Description: Using HEK293 cell overexpressing a human ether-a-go-go-related gene (hERG), the maximum tale current of the hERG IKr current induced by redepolarization pulse subsequent to depolarization pulse was measured by a patch-clamp method.

[3] = Solubility test (DMSO precipitation method, Pharmacopoeia of Japan elution test second solution); format: physicochemical; conditions: aqueous buffer, kinetic from dmso stock; Pharmacopoeia of Japan elution test second solution pH=6.8, room temperature, five hours; quantitation range 5 to 100 μM
Description: A calibration curve solution was prepared by diluting a test substance (10 mM DMSO solution) with acetonitrile and adding acetonitrile including an internal standard substance (candesartan) so as to be 0.1, 0.4, and 2 μM.
Sample solution was prepared as follows: 5 μL of the compound of the present invention (10 mM DMSO solution) was added to 495 μL of the Pharmacopoeia of Japan elution test second solution (pH=6.8), and the resulting mixture was stirred at room temperature for five hours. Then, the solution was placed into a solubility filter plate and subjected to suction filtration. The filtrate (20 μL) was diluted with acetonitrile, followed by adding acetonitrile including an internal standard substance ([…]).
The calibration curve and sample solutions in the amount of 5 μL were infused into LC-MS/MS (Discovery Max manufactured by Thermo Scientific) and subjected to quantitation (quantitation range: 5 to 100 μM).

SMILES | EC50 (Human KCNQ2/3 channel) [nM] | Residual rate [2] [%] | solubility at 5 h [3] [µM] | IC20 [1] [nM] | IC50 (hERG channel) [nM]
O=C(NCc1cnc(C(F)(F)F)nc1)Nc1c(Cl)cc([C@@H](O)C(F)(F)F)cc1Cl [Example 32 (3), 1-{2,6-dichloro-4-[(1R)-2,2,2-trifluoro-1-hydroxyethyl]phenyl}-3-{[2-(trifluoromethyl)-5-pyrimidinyl]methyl}urea] | 500 | 100 | 100 (≈ 46.3 µg/mL) | 100 | > 10000
O=C(NCc1ncc(C(F)(F)F)cn1)Nc1c(Cl)cc([C@@H](O)C(F)(F)F)cc1Cl [Example 32 (4), 1-{2,6-dichloro-4-[(1R)-2,2,2-trifluoro-1-hydroxyethyl]phenyl}-3-{[5-(trifluoromethyl)-2-pyrimidinyl]methyl}urea] | 200 | 100 | 77 (≈ 35.7 µg/mL) | 200 | > 10000
O=C(NCc1cnc(C(F)(F)F)s1)Nc1c(Cl)cc([C@@H](O)C(F)(F)F)cc1Cl [Example 33, 1-{2,6-dichloro-4-[(1R)-2,2,2-trifluoro-1-hydroxyethyl]phenyl}-3-{[2-(trifluoromethyl)-1,3-thiazole-5-yl]methyl}urea] | 40 | 100 | 91 (≈ 42.6 µg/mL) | 30 | > 10000
O=C(NCc1cnc(C(F)(F)F)nc1)Nc1c(Cl)cc([C@H](O)C(F)(F)F)cc1Cl [Example 35 (3), 1-{2,6-dichloro-4-[(1S)-2,2,2-trifluoro-1-hydroxyethyl]phenyl}-3-{[2-(trifluoromethyl)-5-pyrimidinyl]methyl}urea] | 300 | 100 | 87 (≈ 40.3 µg/mL) | 100 | > 10000
O=C(NCc1cnc(C(F)(F)F)s1)Nc1c(Cl)cc([C@H](O)C(F)(F)F)cc1Cl [Example 36, 1-{2,6-dichloro-4-[(1S)-2,2,2-trifluoro-1-hydroxyethyl]phenyl}-3-{[2-(trifluoromethyl)-1,3-thiazole-5-yl]methyl}urea] | 30 | 100 | 44 (≈ 20.6 µg/mL) | 10 | > 10000
NC(c1cc(Cl)c(NC(=O)NCc2ccc(C(F)(F)F)cn2)c(Cl)c1)C(F)(F)F (stereo not shown) [Example 79 (1), 1-[4-(1-amino-2,2,2-trifluoroethyl)-2,6-dichlorophenyl]-3-{[5-(trifluoromethyl)-2-pyridinyl]methyl}urea] | 1600 | 82 | 87 (≈ 40.1 µg/mL) | – | > 10000

Continued, in another order:

EC50 (Human KCNQ2/3 channel) [nM] | Residual rate [2] [%] | solubility at 5 h [3] [µM] | SMILES | IC20 [1] [nM] | IC50 (hERG channel) [nM]
60 | 100 | 77 (≈ 36.7 µg/mL) | C[C@@](O)(c1cc(Cl)c(NC(=O)NCc2ccc(C(F)(F)F)cn2)c(Cl)c1)C(F)(F)F [Example 22 (1), 1-{2,6-dichloro-4-[(2R)-1,1,1-trifluoro-2-hydroxy-2-propanyl]phenyl}-3-{[5-(trifluoromethyl)-2-pyridinyl]methyl}urea] | 300 | > 10000
500 | 100 | 89 (≈ 42.5 µg/mL) | C[C@@](O)(c1cc(Cl)c(NC(=O)NCc2ncc(C(F)(F)F)cn2)c(Cl)c1)C(F)(F)F [Example 22 (2), 1-{2,6-dichloro-4-[(2R)-1,1,1-trifluoro-2-hydroxy-2-propanyl]phenyl}-3-{[5-(trifluoromethyl)-2-pyrimidinyl]methyl}urea] | 400 | > 10000
200 | 98 | 81 (≈ 38.6 µg/mL) | C[C@@](O)(c1cc(Cl)c(NC(=O)NCc2ccc(C(F)(F)F)nc2)c(Cl)c1)C(F)(F)F [Example 22 (3), 1-{2,6-dichloro-4-[(2R)-1,1,1-trifluoro-2-hydroxy-2-propanyl]phenyl}-3-{[6-(trifluoromethyl)-3-pyridinyl]methyl}urea] | 300 | > 10000
1400 | 78 | 96 (≈ 45.8 µg/mL) | C[C@](O)(c1cc(Cl)c(NC(=O)NCc2ncc(C(F)(F)F)cn2)c(Cl)c1)C(F)(F)F [Example 25 (1), 1-{2,6-dichloro-4-[(2S)-1,1,1-trifluoro-2-hydroxy-2-propanyl]phenyl}-3-{[5-(trifluoromethyl)-2-pyrimidinyl]methyl}urea] | 600 | > 10000
300 | 80 | 86 (≈ 41 µg/mL) | C[C@](O)(c1cc(Cl)c(NC(=O)NCc2ccc(C(F)(F)F)nc2)c(Cl)c1)C(F)(F)F [Example 25 (2), 1-{2,6-dichloro-4-[(2S)-1,1,1-trifluoro-2-hydroxy-2-propanyl]phenyl}-3-{[6-(trifluoromethyl)-3-pyridinyl]methyl}urea] | 200 | > 10000
– | 87 | 98 (≈ 43.4 µg/mL) | C[C@](O)(c1cc(Cl)c(NC(=O)NCc2ccc(Cl)cn2)c(Cl)c1)C(F)(F)F [Example 25 (5), 1-[(5-chloro-2-pyridinyl)methyl]-3-{2,6-dichloro-4-[(2S)-1,1,1-trifluoro-2-hydroxy-2-propanyl]phenyl}urea] | 500 | > 10000
